Test results reported in PMC12560410, “Multi spectroscopic investigations with molecular docking and molecular dynamics simulation of the binding mechanism of molnupiravir to bovine serum albumin” (BMC Chemistry, 2025).

Columns and labels:
bovine serum albumin = target: T1, bovine serum albumin (Bos taurus, UniProt P02769); assay: FT-IR spectroscopy of BSA with MOL; assay type: binding; details: BSA 3 µM, MOL 180 µM, pH 7.4
T1 construct: purchased BIOMARK laboratories (Pune, Maharashtra, India)
Description: FT-IR spectra of 3 µM bovine serum albumin solution in tris-HCl buffer, BSA (3 µM) in the presence of MOL (180 µM), and MOL alone (180 µM) at pH 7.4 were recorded using Tensor27—S2887 FT-IR spectrometer (Bruker, Germany) from 4000 to 1000 cm^− 1. Baseline correction and water vapor subtraction were applied prior to analysis.
FT-IR spectroscopy was utilized to examine the secondary structure of BSA in free, drug-bound forms and free drug by recording changes in spectra as shown in Fig. S5. However, slight differences were observed between these spectra. […] The results from the UV absorption and fluorescence analysis are consistent with this observation.

[1] = parameters: method as in PMID 39912659, PMID 37526305; details: following oral administration; hydrolyzed by esterases to NHC; cited from earlier work
[2] = target: T2, bovine serum albumin (BSA) (Bos taurus, UniProt P02769); assay: Fluorescence quenching of BSA by MOL (Stern–Volmer and modified Stern–Volmer analysis, thermodynamics); assay type: binding; details: for Ksv (Stern–Volmer quenching constant) / n (number of binding sites) / Kd: pH 7.4; for Kd: read-out: Log Ka (converted)
T2 construct: purchased BIOMARK laboratories (Pune, Maharashtra, India)
Description: The fluorescence of the tyrosine (Tyr) and tryptophan (Trp) residues observed for solutions that have a fixed BSA concentration 3 µM and different concentrations of MOL (30–180 µM) at pH 7.4. The emission spectra were obtained between 300 and 500 nm. The excitation wavelength was 295 nm, at temperatures 285, 290, 295, 303, and 308 K. […]
Utilizing the Stern–Volmer equation, the quenching mechanism was identified (Eq. 1):1 [drawing 1]
The fluorescence intensities of BSA in absence of MOL are indicated as [drawing 2] while those measured in the presence of MOL are referred to as [drawing 3] . The term [drawing 4] represents the Stern–Volmer quenching rate constant. MOL concentration represents the quencher concentration [drawing 5] .
F^0/F was plotted versus [Q], then the slope was calculated to obtain the values of Ksv as shown in the Stern–Volmer equation (Eq. 1) to assess the experimental results as shown in Fig. 3.
IFE-corrected fluorescence intensity values were calculated using the following formula: […]
The modified Stern–Volmer equation is used to determine the stoichiometry (n) and equilibrium association constant (Ka), which govern how small molecules interact with specific binding sites on a macromolecule (Eq. 2).2 [drawing 7]
where [drawing 8] represents the number of binding sites and [drawing 9] represents the binding constant, as calculated from the plots of log [(F0–F)/F] against log [Q]. The plot of the modified Stern–Volmer equation was illustrated in Fig. S2. […] The stoichiometry of the binding interaction concerning MOL and BSA was approximately 1:1, as indicated by the n value being close to unity.
The intercept and slope of the plot of ln Ka vs. 1/T were used to determine ΔS (entropy change) and ΔH (enthalpy change), respectively in accordance with the Vant’s Hoff equation (Eq. 3), as shown in Table 2.
Furthermore, the Gibbs–Helmholtz equation determines ΔG (Eq. 4).3 [drawing 10] 4 [drawing 11]
where ΔG denotes the Gibbs free energy change and R denotes the universal gas constant (8.314 J mol^−1 k^−1) while T is the absolute temperature (K). […] The negative values of both ΔH and ΔS indicate that the binding of MOL to BSA is primarily governed by hydrogen bonding and van der Waals interactions rather than hydrophobic forces. The thermodynamic results, was supported by docking analysis, confirming that hydrogen bonding and van der Waals contacts are the dominant driving forces in MOL–BSA complex formation. […] Moreover, the spontaneity of the interaction could reflect the favorable conformational stability of the MOL-BSA complex.

BSA = target: T3, BSA (Bos taurus, UniProt P02769); assay: Synchronous fluorescence spectroscopy of BSA with MOL; assay type: binding, bovine; details: MOL 0–180 µM, pH 7.4
T3 construct: purchased BIOMARK laboratories (Pune, Maharashtra, India)
Description: Initially, the synchronous fluorescence spectra of BSA were acquired at a concentration of 3µM, and then its mixtures with MOL ranged from 30 to 180 µM at pH 7.4. These spectra were obtained at spectral intervals of Δλ = 15 nm as well as Δλ = 60 nm, with a 10 mm path quartz cell and scanning rate of 1000 nanometers per minute (nm/min).
The polarity of the surrounding environment of the fluorescent amino acids in BSA is influenced by ligand interaction, and this has been studied using synchronous fluorescence spectroscopy. In this study, a scanning interval (Δλ) of 60 nm and 15 nm was set between the excitation and emission wavelengths, allowing for the observation of polarity alterations surrounding tyrosine (Tyr) and tryptophan (Trp) residues, respectively.
Spectra of BSA synchronous fluorescence were acquired for BSA solutions both with and without the addition of MOL (Fig. 4). […] The Ratios of Synchronous Fluorescence Quenching (RSFQ) were determined using Eq. 5 as follows: […]

[3] = target: T2, bovine serum albumin (BSA); assay: Effect of common ions on binding affinity of MOL to BSA; details: 297 K, pH 7.4
Source text: […] […] These findings can be used for further investigations into how different ions influence the binding affinity of MOL to BSA.
Ka′/Ka is the binding constant divided by the binding constant in the absence of the ion; r is the correlation coefficient.

[4] = target: T2, bovine serum albumin (BSA); assay: Site marker competition (indomethacin site I, diazepam site II) for MOL binding to BSA; details: 295 K, pH 7.4; for Kd: read-out: Log Ka (converted)
Description: This study was conducted using two specific site probes: indomethacin for site I and diazepam for site II. In these experiments, the concentrations of BSA and the site probes were kept constant at 3 µM and 10 µM, respectively, while the concentration of MOL was varied from 30 to 180 µM. Fluorescence intensity was measured at 350 nm with excitation at 295 nm, and all measurements were carried out at 295 K and pH 7.4. The binding equilibrium constants (Ka) of MOL to BSA alone, indomethacin-BSA, and diazepam-BSA complexes were compared.
The apparent binding constants (Ka) were calculated by plotting log[(F₀–F)/F] versus log[Q] in the absence and presence of site markers Figure S6.

[5] = van't Hoff plot of ln Ka vs 1/T, 285–308 K

T2 sequence (P02769 25-607): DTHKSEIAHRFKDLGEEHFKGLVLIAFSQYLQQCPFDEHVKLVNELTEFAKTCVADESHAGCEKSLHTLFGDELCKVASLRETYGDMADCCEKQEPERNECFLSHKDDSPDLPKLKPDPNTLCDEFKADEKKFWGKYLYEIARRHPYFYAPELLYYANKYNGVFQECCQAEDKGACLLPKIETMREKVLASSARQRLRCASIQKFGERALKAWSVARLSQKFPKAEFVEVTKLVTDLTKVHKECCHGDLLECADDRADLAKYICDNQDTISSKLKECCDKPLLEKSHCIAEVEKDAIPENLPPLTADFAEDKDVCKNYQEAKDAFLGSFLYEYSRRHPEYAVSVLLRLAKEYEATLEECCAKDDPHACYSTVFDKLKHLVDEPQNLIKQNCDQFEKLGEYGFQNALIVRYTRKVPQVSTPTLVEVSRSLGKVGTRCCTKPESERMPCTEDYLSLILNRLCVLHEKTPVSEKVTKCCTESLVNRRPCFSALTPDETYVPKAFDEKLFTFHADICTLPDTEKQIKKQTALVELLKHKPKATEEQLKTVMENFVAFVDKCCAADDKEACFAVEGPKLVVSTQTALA
T3 sequence (P02769 25-607): as above
T1 sequence (P02769 25-607): as above

Structure (SMILES): CC(C)C(=O)OC[C@H]1O[C@@H](n2ccc(NO)nc2=O)[C@H](O)[C@@H]1O [MOL, Molnupiravir]
- amide band of BSA after addition of MOL (bovine serum albumin): shifted from 1610 cm^−1 to 1636 cm^−1
- systemic plasma concentration of parent drug [1]: no significant concentrations of the parent drug are detected systemically in plasma
- ΔG (Gibbs free energy change) ([2]; 285 K): -23.915 KJ mol ^− 1
- Ksv (Stern–Volmer quenching constant) ([2]; 285 K): 11100 L/mol
- n (number of binding sites) ([2]; 285 K): 1.072
- Kd ([2]; 285 K): 41.4 µM
- ΔG (Gibbs free energy change) ([2]; 290 K): -23.546 KJ mol ^− 1
- Ksv (Stern–Volmer quenching constant) ([2]; 290 K): 9635 L/mol
- n (number of binding sites) ([2]; 290 K): 1.077
- Kd ([2]; 290 K): 57.4 µM
- difference between IFE-corrected and uncorrected Ksv ([2]; 295 K): 0.9%
- ΔG (Gibbs free energy change) ([2]; 295 K): -23.252 KJ mol ^− 1
- corrected Stern–Volmer constant (Ksv) ([2]; 295 K, inner filter effect (IFE) corrected): 7160 L/mol
- Ksv (Stern–Volmer quenching constant) ([2]; 295 K): 7096 L/mol
- n (number of binding sites) ([2]; 295 K): 1.086
- Kd ([2]; 295 K): 76.3 µM
- uncorrected Stern–Volmer constant (Ksv) ([2]; 295 K, uncorrected): 7096 L/mol
- ΔG (Gibbs free energy change) ([2]; 303 K): -22.276 KJ mol ^− 1
- Ksv (Stern–Volmer quenching constant) ([2]; 303 K): 5288 L/mol
- n (number of binding sites) ([2]; 303 K): 1.066
- Kd ([2]; 303 K): 144 µM
- ΔG (Gibbs free energy change) ([2]; 308 K): -21.618 KJ mol ^− 1
- Ksv (Stern–Volmer quenching constant) ([2]; 308 K): 3800 L/mol
- n (number of binding sites) ([2]; 308 K): 1.055
- Kd ([2]; 308 K): 216 µM
- fluorescence quenching mechanism ([2]; Ksv inversely proportional to temperature): static interaction
- ΔH (enthalpy change) [2, 5]: -52.434 KJ.mol ^− 1
- ΔS (entropy change) [2, 5]: -99.63 J mol^− 1K^− 1
- red shift in λmax of BSA synchronous fluorescence (BSA; Δλ = 15 nm (Tyr residues)): about 2 nm
- shift in λmax of BSA synchronous fluorescence (BSA; Δλ = 60 nm): no shift was detected
- Ka’/ Ka (binding constant divided by binding constant in absence of the ion) ([3]; Ca^2+ added (75 µM)): 0.9046
- Kd ([3]; Ca^2+ added (75 µM), read-out: Ka’ (binding constant) (converted)): 674 µM
- Ka’/ Ka (binding constant divided by binding constant in absence of the ion) ([3]; Co^2+ added (75 µM)): 1.6233
- Kd ([3]; Co^2+ added (75 µM), read-out: Log Ka (converted)): 375 µM
- Ka’/ Ka (binding constant divided by binding constant in absence of the ion) ([3]; Cu^2+ added (75 µM)): 0.2573
- Kd ([3]; Cu^2+ added (75 µM), read-out: Log Ka (converted)): 2370 µM
- Ka’/ Ka (binding constant divided by binding constant in absence of the ion) ([3]; No ion): 1
- Kd ([3]; No ion, read-out: Ka’ (binding constant) (converted)): 609 µM
- Kd ([4]; in presence of diazepam (site II probe, 10 µM)): 361 µM
- Kd ([4]; in presence of indomethacin (site I probe, 10 µM)): 56.3 µM
- preferential binding site on BSA ([4]; site marker displacement): Sudlow’s site II
